The values that follow come from patent US20240116985A1, “STAPLED PEPTIDES AND METHODS THEREOF” (priority 2020, published 2024).

The target in experiment [1] is T1, full-length beta-Catenin (Uniprot ID P35222) (Homo sapiens, UniProt P35222).
T1 construct: 10 nM full-length beta-Catenin (Uniprot ID P35222)
T1 sequence (P35222 1-781): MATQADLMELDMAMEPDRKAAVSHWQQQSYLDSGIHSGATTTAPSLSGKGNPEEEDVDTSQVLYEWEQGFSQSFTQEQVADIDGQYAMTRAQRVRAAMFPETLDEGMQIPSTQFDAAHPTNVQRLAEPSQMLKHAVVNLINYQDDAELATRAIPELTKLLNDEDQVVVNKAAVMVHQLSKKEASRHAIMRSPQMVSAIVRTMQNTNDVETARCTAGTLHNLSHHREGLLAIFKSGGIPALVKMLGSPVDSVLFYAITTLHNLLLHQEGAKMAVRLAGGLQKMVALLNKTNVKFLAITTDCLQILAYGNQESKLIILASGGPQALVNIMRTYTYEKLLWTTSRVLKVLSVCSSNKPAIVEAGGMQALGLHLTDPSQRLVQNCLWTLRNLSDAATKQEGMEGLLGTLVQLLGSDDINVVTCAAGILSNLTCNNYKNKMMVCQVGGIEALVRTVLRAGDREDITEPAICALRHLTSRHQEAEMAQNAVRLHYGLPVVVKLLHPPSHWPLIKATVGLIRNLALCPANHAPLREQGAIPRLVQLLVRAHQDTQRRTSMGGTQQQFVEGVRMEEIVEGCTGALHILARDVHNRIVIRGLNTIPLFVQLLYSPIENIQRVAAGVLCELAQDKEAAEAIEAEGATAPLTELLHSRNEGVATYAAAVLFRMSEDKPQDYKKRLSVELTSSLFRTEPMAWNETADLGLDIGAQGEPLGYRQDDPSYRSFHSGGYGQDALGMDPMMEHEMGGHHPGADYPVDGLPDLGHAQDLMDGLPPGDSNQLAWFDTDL
Kind of experiment: Fluorescence polarization IC50 (beta-catenin / 5FAM-TCF4 10-53 competition). The settings on record: fluorescence polarization; read-out: beta-Catenin FP IC50. The format is binding. A general note: In fluorescence polarisation assays a small probe gives low polarisation when free and higher when bound to something large.

The target in experiment [2] is T2, beta-catenin/TCF4 engagement (Homo sapiens, UniProt P35222).
T2 construct: expressed in transfected cells; host or cells: HEK293
T2 sequence (P35222 1-781): T1 sequence (P35222 1-781)
Kind of experiment: Nano-BRET target engagement assay (B-cat-Halo & TCF4-Luc in HEK293 cells). Format: cell-based. The settings on record: absolute IC50; read-out: NanoBRET Abs IC50.

Broadly, the IC50 is the midpoint of a concentration-inhibition curve. On to `CCCC[C@@H]1NC(=O)[C@H](CC(=O)O)NC(=O)[C@]2(CC=CCCCC3(CCCC=CCCCCCC[C@@](C)(C(=O)N[C@@H](Cc4ccccc4)C(=O)N[C@@H](Cc4csc5ccccc45)C(=O)N[C@@H](CCC(N)=O)C(N)=O)NC(=O)[C@H](CCC(N)=O)NC(=O)[C@H](Cc4ccccc4)NC(=O)[C@H](C)NC(=O)[C@H](C)NC(=O)[C@H](CCC(=O)O)NC(=O)[C@H](CC(=O)O)NC3=O)NC1=O)CCCN2C(C)=O` (stereo partly drawn) [I-1522, Ac-PL3-Asp-nLeu-B5-Asp-Glu-Ala-Ala-Phe-Gln-S8-Phe-BztA-Gln-NH2], for which the values for the IC50 in experiment [1] and in experiment [2] were 6 nM and 5800 nM, respectively.
The like results for `CCCC[C@@H]1NC(=O)[C@H](CC(=O)O)NC(=O)[C@]2(CC=CCCCC3(CCCC=CCCCCCC[C@@](C)(C(=O)N[C@@H](Cc4ccccc4)C(=O)N[C@@H](Cc4csc5ccccc45)C(=O)N[C@@H](CCC(N)=O)C(N)=O)NC(=O)[C@H](CC(C)C)NC(=O)[C@H](Cc4ccccc4)NC(=O)[C@H](C)NC(=O)[C@H](C)NC(=O)[C@H](CCC(=O)O)NC(=O)[C@H](CC(=O)O)NC3=O)NC1=O)CCCN2C(C)=O` (stereo partly drawn) [I-1523, Ac-PL3-Asp-nLeu-B5-Asp-Glu-Ala-Ala-Phe-Leu-S8-Phe-BztA-Gln-NH2] were, in that order, 29 nM and 8000 nM.
On the same counts, the results for `CCCC[C@@H]1NC(=O)[C@H](CC(=O)O)NC(=O)[C@]2(CC=CCCCC3(CCCC=CCCCCCC[C@@](C)(C(=O)N[C@@H](Cc4ccccc4)C(=O)N[C@@H](Cc4csc5ccccc45)C(=O)N[C@@H](CCC(N)=O)C(N)=O)NC(=O)[C@H](CCO)NC(=O)[C@H](Cc4ccccc4)NC(=O)[C@H](C)NC(=O)[C@H](C)NC(=O)[C@H](CCC(=O)O)NC(=O)[C@H](CC(=O)O)NC3=O)NC1=O)CCCN2C(C)=O` (stereo partly drawn) [I-1524, Ac-PL3-Asp-nLeu-B5-Asp-Glu-Ala-Ala-Phe-Hse-S8-Phe-BztA-Gln-NH2] are 17 nM and 8100 nM.
The like results for `CCCC[C@@H]1NC(=O)[C@H](CC(=O)O)NC(=O)[C@]2(CC=CCCCC3(CCCC=CCCCCCC[C@@](C)(C(=O)N[C@@H](Cc4ccccc4)C(=O)N[C@@H](Cc4csc5ccccc45)C(=O)N[C@@H](CCC(N)=O)C(N)=O)NC(=O)[C@H](CCO)NC(=O)[C@H](Cc4ccccc4)NC(=O)[C@H](C)NC(=O)[C@H](C)NC(=O)[C@H](CCC(=O)O)NC(=O)[C@H](CC(=O)O)NC3=O)NC1=O)CCCN2C(C)=O` (stereo partly drawn) [I-1525, Ac-PL3-Asp-nLeu-B5-Asp-Glu-Ala-Ala-Phe-Hse-S8-Phe-BztA-Gln-NH2] were, in that order, 22 nM and 10800 nM.
For `CC(=O)N1CCC[C@]12CC=CCCCC1(CCCC=CCCCCCC[C@@](C)(C(=O)N[C@@H](Cc3ccccc3)C(=O)N[C@@H](Cc3csc4ccccc34)C(=O)N[C@@H](CCC(N)=O)C(N)=O)NC(=O)[C@H](CCC(N)=O)NC(=O)[C@H](Cc3ccccc3)NC(=O)[C@H](C)NC(=O)[C@H](C)NC(=O)[C@H](CCC(=O)O)NC(=O)[C@H](CC(=O)O)NC1=O)NC(=O)[C@H](CO)NC(=O)[C@H](CC(=O)O)NC2=O` (stereo partly drawn) [I-1526, Ac-PL3-Asp-Ser-B5-Asp-Glu-Ala-Ala-Phe-Gln-S8-Phe-BztA-Gln-NH2], the IC50 in experiment [1] was 84 nM; in experiment [2], above 20000 nM.
The like results for `CC(=O)N1CCC[C@]12CC=CCCCC1(CCCC=CCCCCCC[C@@](C)(C(=O)N[C@@H](Cc3ccccc3)C(=O)N[C@@H](Cc3csc4ccccc34)C(=O)N[C@@H](CCC(N)=O)C(N)=O)NC(=O)[C@H](CCC(N)=O)NC(=O)[C@H](Cc3ccccc3)NC(=O)[C@H](C)NC(=O)[C@H](C)NC(=O)[C@H](CCC(=O)O)NC(=O)[C@H](CC(=O)O)NC1=O)NC(=O)[C@H](CO)NC(=O)[C@H](CC(=O)O)NC2=O` (stereo partly drawn) [I-1527, Ac-PL3-Asp-Ser-B5-Asp-Glu-Ala-Ala-Phe-Gln-S8-Phe-BztA-Gln-NH2] were, in that order, 36 nM and 30300 nM.
The like results for `CC(=O)N1CCC[C@]12CC=CCCCC1(CCCC=CCCCCCC[C@@](C)(C(=O)N[C@@H](Cc3ccccc3)C(=O)N[C@@H](Cc3csc4ccccc34)C(=O)N[C@@H](CCC(N)=O)C(N)=O)NC(=O)[C@H](CC(C)C)NC(=O)[C@H](Cc3ccccc3)NC(=O)[C@H](C)NC(=O)[C@H](C)NC(=O)[C@H](CCC(=O)O)NC(=O)[C@H](CC(=O)O)NC1=O)NC(=O)[C@H](CO)NC(=O)[C@H](CC(=O)O)NC2=O` (stereo partly drawn) [I-1528, Ac-PL3-Asp-Ser-B5-Asp-Glu-Ala-Ala-Phe-Leu-S8-Phe-BztA-Gln-NH2] were, in that order, 102 nM and 31400 nM.
Consider `CC(=O)N1CCC[C@]12CC=CCCCC1(CCCC=CCCCCCC[C@@](C)(C(=O)N[C@@H](Cc3ccccc3)C(=O)N[C@@H](Cc3csc4ccccc34)C(=O)N[C@@H](CCC(N)=O)C(N)=O)NC(=O)[C@H](CCO)NC(=O)[C@H](Cc3ccccc3)NC(=O)[C@H](C)NC(=O)[C@H](C)NC(=O)[C@H](CCC(=O)O)NC(=O)[C@H](CC(=O)O)NC1=O)NC(=O)[C@H](CO)NC(=O)[C@H](CC(=O)O)NC2=O` (stereo partly drawn) [I-1530, Ac-PL3-Asp-Ser-B5-Asp-Glu-Ala-Ala-Phe-Hse-S8-Phe-BztA-Gln-NH2], for which the values for the IC50 in experiment [1] and in experiment [2] were 61 nM and 36900 nM, respectively.
On the same counts, the results for `CC(=O)N1CCC[C@]12CC=CCCCC1(CCCC=CCCCCCC[C@@](C)(C(=O)N[C@@H](Cc3ccccc3)C(=O)N[C@@H](Cc3csc4ccccc34)C(=O)N[C@@H](CCC(N)=O)C(N)=O)NC(=O)[C@H](CCC(N)=O)NC(=O)[C@H](Cc3ccccc3)NC(=O)[C@H](C)NC(=O)[C@H](C)NC(=O)[C@H](CCC(=O)O)NC(=O)[C@H](CC(=O)O)NC1=O)NC(=O)[C@H](CC(N)=O)NC(=O)[C@H](CC(=O)O)NC2=O` (stereo partly drawn) [I-1531, Ac-PL3-Asp-Asn-B5-Asp-Glu-Ala-Ala-Phe-Gln-S8-Phe-BztA-Gln-NH2] are 84 nM and above 20000 nM.
As for `CC(=O)N1CCC[C@]12CC=CCCCC1(CCCC=CCCCCCC[C@@](C)(C(=O)N[C@@H](Cc3ccccc3)C(=O)N[C@@H](Cc3csc4ccccc34)C(=O)N[C@@H](CCC(N)=O)C(N)=O)NC(=O)[C@H](CCC(N)=O)NC(=O)[C@H](Cc3ccccc3)NC(=O)[C@H](C)NC(=O)[C@H](C)NC(=O)[C@H](CCC(=O)O)NC(=O)[C@H](CC(=O)O)NC1=O)NC(=O)[C@H](CC(N)=O)NC(=O)[C@H](CC(=O)O)NC2=O` (stereo partly drawn) [I-1532, Ac-PL3-Asp-Asn-B5-Asp-Glu-Ala-Ala-Phe-Gln-S8-Phe-BztA-Gln-NH2], the IC50 was 49 nM in experiment [1] and above 20000 nM in experiment [2].
For the compound `CC(=O)N1CCC[C@]12CC=CCCCC1(CCCC=CCCCCCC[C@@](C)(C(=O)N[C@@H](Cc3ccccc3)C(=O)N[C@@H](Cc3csc4ccccc34)C(=O)N[C@@H](CCC(N)=O)C(N)=O)NC(=O)[C@H](CC(C)C)NC(=O)[C@H](Cc3ccccc3)NC(=O)[C@H](C)NC(=O)[C@H](C)NC(=O)[C@H](CCC(=O)O)NC(=O)[C@H](CC(=O)O)NC1=O)NC(=O)[C@H](CC(N)=O)NC(=O)[C@H](CC(=O)O)NC2=O` (stereo partly drawn) [I-1533, Ac-PL3-Asp-Asn-B5-Asp-Glu-Ala-Ala-Phe-Leu-S8-Phe-BztA-Gln-NH2], the IC50 in experiment [1] is 76 nM; in experiment [2] it was above 20000 nM.
On the same counts, the results for `CC(=O)N1CCC[C@]12CC=CCCCC1(CCCC=CCCCCCC[C@@](C)(C(=O)N[C@@H](Cc3ccccc3)C(=O)N[C@@H](Cc3csc4ccccc34)C(=O)N[C@@H](CCC(N)=O)C(N)=O)NC(=O)[C@H](CCO)NC(=O)[C@H](Cc3ccccc3)NC(=O)[C@H](C)NC(=O)[C@H](C)NC(=O)[C@H](CCC(=O)O)NC(=O)[C@H](CC(=O)O)NC1=O)NC(=O)[C@H](CC(N)=O)NC(=O)[C@H](CC(=O)O)NC2=O` (stereo partly drawn) [I-1534, Ac-PL3-Asp-Asn-B5-Asp-Glu-Ala-Ala-Phe-Hse-S8-Phe-BztA-Gln-NH2] are 181 nM and above 20000 nM.
The like results for `CC(=O)N1CCC[C@]12CC=CCCCC1(CCCC=CCCCCCC[C@@](C)(C(=O)N[C@@H](Cc3ccccc3)C(=O)N[C@@H](Cc3csc4ccccc34)C(=O)N[C@@H](CCC(N)=O)C(N)=O)NC(=O)[C@H](CCO)NC(=O)[C@H](Cc3ccccc3)NC(=O)[C@H](C)NC(=O)[C@H](C)NC(=O)[C@H](CCC(=O)O)NC(=O)[C@H](CC(=O)O)NC1=O)NC(=O)[C@H](CC(N)=O)NC(=O)[C@H](CC(=O)O)NC2=O` (stereo partly drawn) [I-1535, Ac-PL3-Asp-Asn-B5-Asp-Glu-Ala-Ala-Phe-Hse-S8-Phe-BztA-Gln-NH2] were, in that order, 72 nM and above 20000 nM.
On the same counts, the results for `CC(=O)N1CCC[C@]12CC=CCCCC1(CCCC=CCCCCCC[C@@](C)(C(=O)N[C@@H](Cc3ccccc3)C(=O)N[C@@H](Cc3csc4ccccc34)C(=O)N[C@@H](CCC(N)=O)C(N)=O)NC(=O)[C@H](CCO)NC(=O)[C@H](Cc3ccccc3)NC(=O)[C@H](C)NC(=O)[C@H](C)NC(=O)[C@H](CCC(=O)O)NC(=O)[C@H](CC(=O)O)NC1=O)NC(=O)[C@H](CCC(C)C)NC(=O)[C@H](CC(=O)O)NC2=O` (stereo partly drawn) [I-1537, Ac-PL3-Asp-Hleu-B5-Asp-Glu-Ala-Ala-Phe-Hse-S8-Phe-BztA-Gln-NH2] are 31 nM and 13900 nM.
